# Test results published in ChEMBL document CHEMBL4396926, “Design, Synthesis and Anticancer Evaluation of New Substituted Thiophene-Quinoline Derivatives” (Bioorg Med Chem, 2019).
# How the values were obtained:
# HeLa [1] = test: Cytotoxicity against human HeLa cells assessed as cell growth inhibition at 3.125 to 100 uM incubated for 72 hrs and measured after 2 hrs by microplate reader based WST-1 assay relative to control; type: functional
# MCF7 [2] = test: Cytotoxicity against human MCF7 cells assessed as cell growth inhibition at 3.125 to 100 uM incubated for 72 hrs and measured after 2 hrs by microplate reader based WST-1 assay relative to control; type: functional
# HCT-116 [3] = test: Cytotoxicity against human HCT116 cells assessed as cell growth inhibition at 3.125 to 100 uM incubated for 72 hrs and measured after 2 hrs by microplate reader based WST-1 assay relative to control; type: functional
# HepG2 [4] = test: Cytotoxicity against human HepG2 cells assessed as cell growth inhibition at 3.125 to 100 uM incubated for 72 hrs and measured after 2 hrs by microplate reader based WST-1 assay relative to control; type: functional
# HCT-116 [5] = test: Cytotoxicity against human HCT116 cells assessed as increase in growth inhibition by measuring decrease in cell viability incubated for 72 hrs and measured after 2 hrs by microplate reader based WST-1 assay; type: functional
# MCF7 [6] = test: Induction of apoptosis in human MCF7 cells assessed as increase in caspase 9 activation by measuring fold increase in caspase 9 level by fluorescence based solid phase sandwich ELISA; type: functional
# MCF7 [7] = test: Induction of apoptosis in human MCF7 cells after 24 hrs by Annexin V-FITC/propidium iodide staining-based FACS analysis; type: functional, cell-based
# MCF7 [8] = test: Induction of apoptosis in human MCF7 cells assessed as early apoptotic cells after 24 hrs by Annexin V-FITC/propidium iodide staining-based FACS analysis (reference value: 0.29%); type: functional
# MCF7 [9] = test: Induction of apoptosis in human MCF7 cells assessed as necrotic cells after 24 hrs by Annexin V-FITC/propidium iodide staining-based FACS analysis (reference value: 0.15%); type: functional
# DNA topoisomerase II [10] = target: T1, DNA topoisomerase II (Homo sapiens, UniProt P11388+Q02880); test: Inhibition of DNA topoisomerase 2 in human MCF7 cells incubated for 18 to 24 hrs by kinase assay; type: cell-based
# DNA topoisomerase II [11] = target: T1, DNA topoisomerase II; test: Inhibition of DNA topoisomerase 2 in human MCF7 cells at 1 uM incubated for 18 to 24 hrs by kinase assay relative to control; type: cell-based
# MCF7 [12] = test: Cell cycle arrest in human MCF7 cells assessed as accumulation at pre G1/apoptotic phase at IC50 after 24 hrs by propidium iodide staining based FACS analysis (reference value: 0.66%); type: functional
# MCF7 [13] = test: Induction of apoptosis in human MCF7 cells assessed as increase in caspase 3 activation by measuring fold increase in caspase 3 level by fluorescence based solid phase sandwich ELISA; type: functional
# MCF7 [14] = test: Cell cycle arrest in human MCF7 cells assessed as accumulation at G2/M phase at IC50 after 24 hrs by propidium iodide staining based FACS analysis (reference value: 4.82%); type: functional
# MCF7 [15] = test: Cell cycle arrest in human MCF7 cells assessed as accumulation at S phase at IC50 after 24 hrs by propidium iodide staining based FACS analysis (reference value: 27.13%); type: functional
# [16] = target: Epidermal growth factor receptor (Homo sapiens, UniProt P00533); test: Inhibition of EGFR-TK in human MCF7 cells overexpressing EGFR incubated for 18 to 24 hrs by kinase assay; type: cell-based
# MCF7 [17] = test: Cytotoxicity against human MCF7 cells assessed as increase in growth inhibition by measuring decrease in cell viability incubated for 72 hrs and measured after 2 hrs by microplate reader based WST-1 assay; type: functional; conditions: Homo sapiens, MCF7; read-out: IC50
# MCF7 [18] = test: Induction of apoptosis in human MCF7 cells assessed as viable cells after 24 hrs by Annexin V-FITC/propidium iodide staining-based FACS analysis (reference value: 99.34%); type: functional
# DNA topoisomerase II [19] = target: T1, DNA topoisomerase II; test: Inhibition of DNA topoisomerase 2 in human MCF7 cells at 5 uM incubated for 18 to 24 hrs by kinase assay relative to control; type: cell-based
# HepG2 [20] = test: Cytotoxicity against human HepG2 cells assessed as increase in growth inhibition by measuring decrease in cell viability incubated for 72 hrs and measured after 2 hrs by microplate reader based WST-1 assay; type: functional
# MCF7 [21] = test: Induction of apoptosis in human MCF7 cells assessed as late apoptotic cells after 24 hrs by Annexin V-FITC/propidium iodide staining-based FACS analysis (reference value: 0.22%); type: functional
# DNA topoisomerase II [22] = target: T1, DNA topoisomerase II; test: Inhibition of DNA topoisomerase 2 in human MCF7 cells at 25 uM incubated for 18 to 24 hrs by kinase assay relative to control; type: cell-based
# MCF7 [23] = test: Cell cycle arrest in human MCF7 cells assessed as accumulation at G0/G1 phase at IC50 after 24 hrs by propidium iodide staining based FACS analysis (reference value: 67.39%); type: functional
# DNA topoisomerase II [24] = target: T1, DNA topoisomerase II; test: Inhibition of DNA topoisomerase 2 in human MCF7 cells at 0.2 uM incubated for 18 to 24 hrs by kinase assay relative to control; type: cell-based
# HeLa [25] = test: Cytotoxicity against human HeLa cells assessed as increase in growth inhibition by measuring decrease in cell viability incubated for 72 hrs and measured after 2 hrs by microplate reader based WST-1 assay; type: functional
# HeLa [26] = test: Induction of apoptosis in human HeLa cells assessed as increase in caspase 3 activation by measuring fold increase in caspase 3 level by fluorescence based solid phase sandwich ELISA; type: functional
# [27] = Homo sapiens, HeLa, read-out: IC50
# Epidermal growth factor receptor, sequence (P00533 whole entry): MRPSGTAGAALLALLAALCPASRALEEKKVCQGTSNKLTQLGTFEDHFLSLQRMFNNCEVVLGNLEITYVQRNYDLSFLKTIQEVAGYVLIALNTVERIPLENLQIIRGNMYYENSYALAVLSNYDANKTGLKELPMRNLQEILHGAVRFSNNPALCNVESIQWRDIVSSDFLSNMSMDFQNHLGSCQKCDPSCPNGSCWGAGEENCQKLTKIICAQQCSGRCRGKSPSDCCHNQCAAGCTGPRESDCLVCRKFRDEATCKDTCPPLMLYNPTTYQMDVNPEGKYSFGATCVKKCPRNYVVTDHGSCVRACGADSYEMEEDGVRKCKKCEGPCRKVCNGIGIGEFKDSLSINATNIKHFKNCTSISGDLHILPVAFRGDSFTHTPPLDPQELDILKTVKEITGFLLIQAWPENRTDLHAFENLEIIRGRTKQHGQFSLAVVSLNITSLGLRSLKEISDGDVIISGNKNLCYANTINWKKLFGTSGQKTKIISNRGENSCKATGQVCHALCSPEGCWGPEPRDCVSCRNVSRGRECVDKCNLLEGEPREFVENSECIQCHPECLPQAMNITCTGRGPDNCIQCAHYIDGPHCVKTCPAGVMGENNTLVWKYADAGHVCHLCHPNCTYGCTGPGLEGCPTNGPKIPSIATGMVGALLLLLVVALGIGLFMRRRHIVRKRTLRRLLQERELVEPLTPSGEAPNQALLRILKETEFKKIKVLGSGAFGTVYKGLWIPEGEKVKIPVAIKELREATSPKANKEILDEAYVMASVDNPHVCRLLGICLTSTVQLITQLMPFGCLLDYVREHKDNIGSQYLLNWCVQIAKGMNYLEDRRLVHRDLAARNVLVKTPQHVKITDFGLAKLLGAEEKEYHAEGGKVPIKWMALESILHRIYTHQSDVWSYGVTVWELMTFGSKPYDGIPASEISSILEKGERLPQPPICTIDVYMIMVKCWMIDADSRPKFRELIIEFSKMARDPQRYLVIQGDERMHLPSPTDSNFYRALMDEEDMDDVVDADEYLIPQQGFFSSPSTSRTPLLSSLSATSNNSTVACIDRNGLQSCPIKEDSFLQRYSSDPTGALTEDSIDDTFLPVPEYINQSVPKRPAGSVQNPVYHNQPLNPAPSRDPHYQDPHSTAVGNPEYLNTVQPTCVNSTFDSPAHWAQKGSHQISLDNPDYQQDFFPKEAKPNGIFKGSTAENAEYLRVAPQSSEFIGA
smiles,measurement,setting,value
COc1ccc(-c2cc(COC(c3cccs3)c3cc4ccccc4nc3Cl)on2)cc1 (stereo not drawn),growth inhibition (GI),HeLa [1],<10%
same,growth inhibition (GI),MCF7 [2],<10%
same,growth inhibition (GI),HCT-116 [3],20.31%
same,growth inhibition (GI),HepG2 [4],17.93%
Clc1ccc(COC(c2cccs2)c2cc3ccccc3nc2Cl)cc1 (stereo not drawn),IC50,HCT-116 [5]; hct-116,Not Active
same,fold change (FC),MCF7 [6],29
same,growth inhibition (GI),HeLa [1],30.41%
same,Activity,MCF7 [7],Dose-dependent effect
same,growth inhibition (GI),MCF7 [2],47.94%
same,growth inhibition (GI),HCT-116 [3],<10%
same,Activity,MCF7 [8],6.69%
same,Activity,MCF7 [9],1.6%
same,IC50,DNA topoisomerase II [10],0.44 µM
same,inhibition,DNA topoisomerase II [11],63.3%
same,Activity,MCF7 [12],17.05%
same,fold change (FC),MCF7 [13],33.7
same,Activity,MCF7 [14],23.14%
same,Activity,MCF7 [15],15.35%
same,IC50,[16],3.66 µM
same,IC50,MCF7 [17],28.3 µM
same,Activity,MCF7 [18],82.72%
same,growth inhibition (GI),HepG2 [4],<10%
same,inhibition,DNA topoisomerase II [19],84.7%
same,IC50,HepG2 [20]; hepg2,Not Active
same,Activity,MCF7 [21],8.67%
same,inhibition,DNA topoisomerase II [22],93.2%
same,Activity,MCF7 [23],44.28%
same,inhibition,DNA topoisomerase II [24],36.3%
same,IC50,HeLa [25]; hela,Not Active
COc1ccc(-c2cc(COC(c3cccs3)c3cc4ccccc4nc3Cl)on2)cc1OC (stereo not drawn),growth inhibition (GI),HeLa [1],<10%
same,growth inhibition (GI),MCF7 [2],<10%
same,growth inhibition (GI),HCT-116 [3],<10%
same,growth inhibition (GI),HepG2 [4],<10%
C#CCOC(c1cccs1)c1cc2ccccc2nc1Cl (stereo not drawn),IC50,"HCT-116 [5]; Homo sapiens, HCT-116, read-out: IC50",> 100 µM
same,IC50,MCF7 [17],> 100 µM
same,IC50,"HepG2 [20]; Homo sapiens, HepG2, read-out: IC50",> 100 µM
same,IC50,HeLa [25]; [27],34.7 µM
COc1cc(-c2cc(COC(c3cccs3)c3cc4ccccc4nc3Cl)on2)cc(OC)c1OC (stereo not drawn),growth inhibition (GI),HeLa [1],<10%
same,growth inhibition (GI),MCF7 [2],<10%
same,growth inhibition (GI),HCT-116 [3],<10%
same,growth inhibition (GI),HepG2 [4],14.57%
Fc1ccc(COC(c2cccs2)c2cc3ccccc3nc2Cl)cc1 (stereo not drawn),IC50,HCT-116 [5]; hct-116,Not Active
same,fold change (FC),MCF7 [6],40.6
same,growth inhibition (GI),HeLa [1],66.21%
same,Activity,MCF7 [7],Dose-dependent effect
same,growth inhibition (GI),MCF7 [2],64.97%
same,growth inhibition (GI),HCT-116 [3],<10%
same,Activity,MCF7 [8],7.03%
same,Activity,MCF7 [9],0.83%
same,IC50,DNA topoisomerase II [10],0.23 µM
same,inhibition,DNA topoisomerase II [11],70.8%
same,Activity,MCF7 [12],16.28%
same,fold change (FC),MCF7 [13],30.8
same,Activity,MCF7 [14],19.33%
same,Activity,MCF7 [15],17.19%
same,IC50,[16],2.75 µM
same,IC50,MCF7 [17],38.4 µM
same,Activity,MCF7 [18],83.96%
same,growth inhibition (GI),HepG2 [4],30.53%
same,inhibition,DNA topoisomerase II [19],88.5%
same,IC50,HepG2 [20]; hepg2,Not Active
same,Activity,MCF7 [21],8.42%
same,inhibition,DNA topoisomerase II [22],93.7%
same,Activity,MCF7 [23],47.2%
same,inhibition,DNA topoisomerase II [24],43.3%
same,IC50,HeLa [25]; [27],73.9 µM
CNC(=O)c1cc(Oc2ccc(NC(=O)Nc3ccc(Cl)c(C(F)(F)F)c3)cc2)ccn1 [SORAFENIB],fold change (FC),MCF7 [13],34.2
same,fold change (FC),HeLa [26],35.5
Clc1ccc(-n2cc(COC(c3cccs3)c3cc4ccccc4nc3Cl)nn2)cc1 (stereo not drawn),growth inhibition (GI),HeLa [1],<10%
same,growth inhibition (GI),MCF7 [2],<10%
same,growth inhibition (GI),HCT-116 [3],23.13%
same,growth inhibition (GI),HepG2 [4],8.39%
Clc1nc2ccccc2cc1C(OCc1ccccc1)c1cccs1 (stereo not drawn),IC50,HCT-116 [5]; hct-116,Not Active
same,growth inhibition (GI),HeLa [1],<10%
same,growth inhibition (GI),MCF7 [2],45.63%
same,growth inhibition (GI),HCT-116 [3],<10%
same,IC50,MCF7 [17],108 µM
same,growth inhibition (GI),HepG2 [4],<10%
same,IC50,HepG2 [20]; hepg2,Not Active
same,IC50,HeLa [25]; hela,Not Active
Cc1cc(C)cc(-c2cc(COC(c3cccs3)c3cc4ccccc4nc3Cl)on2)c1 (stereo not drawn),growth inhibition (GI),HeLa [1],<10%
same,growth inhibition (GI),MCF7 [2],<10%
same,growth inhibition (GI),HCT-116 [3],<10%
same,growth inhibition (GI),HepG2 [4],<10%
Clc1nc2ccccc2cc1C(OCc1ccc(Br)cc1)c1cccs1 (stereo not drawn),growth inhibition (GI),HeLa [1],30.89%
same,growth inhibition (GI),MCF7 [2],<10%
same,growth inhibition (GI),HCT-116 [3],21.98%
same,growth inhibition (GI),HepG2 [4],<10%
